The subject of experiment [1] is N87 (gastric cancer) cells. Nature of the experiment: In vitro cell assay (MTS cell viability), N87. Type of experiment: cell-based. To be noted: 96 h, free compounds; 96 hours after treatment. A digest of the protocol: (§1)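 Cells seeded 24 h before treatment with antibody-drug conjugates or free compounds, 3-fold serial dilutions at 10 concentrations in duplicate. Viability read by MTS assay 96 h after treatment as % of untreated control; IC50 from four-parameter logistic fit.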

The target of experiment [2] is T1, tubulin/RB3-stathmin-like-domain (RB3-SLD-tdm) complex (Sus scrofa, UniProt P02550+P02554).
T1 construct: purchased Cytoskeleton, Inc. T240; host or cells: RB3-SLD was made in house in E. coli
Put plainly: Tubulin Peptide-Binding Site Competition Assay (fluorescence polarization). To be noted: FP competition with BODIPY-labeled vinca peptide probe; read after five hours at 22° C.; read-out: Tubulin Peptide-Binding Site Competition Assay IC50. Set-up: species or system Porcine. The method, boiled down:
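The BODIPY vinca-peptide probe was premixed with test compound and then added to porcine tubulin/RB3-SLD, at final concentrations of 3 nM probe, 6 nM tubulin and 100 nM RB3-SLD. The buffer was PIPES pH 7.0 with Tween 20, MgCl2 and EGTA, and 11-point dilutions were run in duplicate. IC50 was fitted from the fluorescence polarization decrease and converted to Ki.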
A general note: Fluorescence polarisation rises when a labelled molecule tumbles more slowly, as on binding a larger partner.

A further experiment deals with HT-29 cells. Put plainly: In vitro cell assay (MTS cell viability), HT-29 (target non-expressing). Type of experiment: cell-based. To be noted: Homo sapiens, HT-29, 96 h, free compounds; 96 hours after treatment; read-out: HT29 IC50. The method, boiled down:
as §1

The subject of experiment [3] is MDA-MB-361-DYT2 (breast cancer) cells. Nature of the experiment: In vitro cell assay (MTS cell viability), MDA-MB-361-DYT2. Type of experiment: cell-based. To be noted: 96 h, free compounds; 96 hours after treatment. The method, boiled down: as §1

Regarding `CC[C@H](C)[C@H](NC(=O)C12CC(CCN1C)C2)C(=O)N(C)[C@H](C[C@@H](OC(C)=O)c1nc(C(=O)N[C@@H](Cc2ccccc2)C[C@H](C)C(=O)OC)cs1)C(C)C` [#B14, methyl (2S,4R)-4-[({2-[(1R,3R)-1-(acetyloxy)-4-methyl-3-(methyl{N-[(2-methyl-2-azabicyclo[3.1.1]hept-1-yl)carbonyl]-L-isoleucyl}amino)pentyl]-1,3-thiazol-4-yl}carbonyl)amino]-2-methyl-5-phenylpentanoate], the IC50 was found to be 0.337 nM in experiment [1], 11.5 nM in experiment [2], 0.063 nM with HT-29 cells and 0.017 nM in experiment [3].

Take `CC[C@H](C)[C@H](NC(=O)[C@@]1(C)CCCN1C)C(=O)N(C)[C@H](C[C@@H](OC(C)=O)c1nc(C(=O)NCC2(c3ccccc3)CC2)cs1)C(C)C` [#B53, 1,2-dimethyl-D-prolyl-N-[(1R,3R)-1-(acetyloxy)-4-methyl-1-(4-{[(1-phenylcyclopropyl)methyl]carbamoyl}-1,3-thiazol-2-yl}pentan-3-yl]-N-methyl-L-isoleucinamide]: the IC50 was 52.4 nM in experiment [1], 12.9 nM in experiment [2], 45.1 nM with HT-29 cells and 34 nM in experiment [3].

One may read the IC50 as the concentration needed to halve the response being measured.
